# Laboratory results taken from patent US6376707B1, “Crystal polymorphism of aminoethylphenoxyacetic acid derivative” (Kissei Pharmaceutical Co., Ltd., priority 1999, dated 2002).
# Read-outs that look alike come from different tables or passages of the source.
# Legend:
# β2-Adrenoceptor = target: T1, β2-Adrenoceptor (Rattus norvegicus, UniProt P10608); assay: β2-Adrenoceptor stimulating effect: spontaneous contractions of isolated pregnant rat uterus (Magnus method); type: cell-based; settings: isolated uterus of pregnant SD rats (day 21), cumulative addition every 5 minutes, 37° C.; read-out: 50% inhibitory drug concentration (EC50 value), uterine contractions
# T1 construct: The uteri of pregnant SD rats (pregnancy day of 21) were isolated; from tissue; host or cells: isolated uterus (longitudinal myometrial preparations) of pregnant SD rats, day 21
# T1 sequence (P10608 whole entry): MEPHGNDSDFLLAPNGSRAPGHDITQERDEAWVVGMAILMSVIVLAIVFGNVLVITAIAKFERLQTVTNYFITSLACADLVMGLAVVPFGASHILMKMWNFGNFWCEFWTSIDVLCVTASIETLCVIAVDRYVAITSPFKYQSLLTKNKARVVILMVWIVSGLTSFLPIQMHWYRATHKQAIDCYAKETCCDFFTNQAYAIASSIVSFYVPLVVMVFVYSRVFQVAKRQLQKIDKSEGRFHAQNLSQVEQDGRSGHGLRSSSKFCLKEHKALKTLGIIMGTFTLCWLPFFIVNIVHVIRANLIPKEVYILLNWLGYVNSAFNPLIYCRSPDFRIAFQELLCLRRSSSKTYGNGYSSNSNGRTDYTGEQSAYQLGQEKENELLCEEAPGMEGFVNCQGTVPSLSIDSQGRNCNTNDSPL
# Procedure: The uteri of pregnant SD rats (pregnancy day of 21) were isolated, and longitudinal preparations of approximately 15 mm in length and approximately 5 mm in width free from the basal plate were prepared. The experiment was conducted according to the Magnus method. The preparations with a tension of 1 g were exposed to Locke-Ringer solution maintained at 37° C. and gassed with a mixture of 95% of oxygen and 5% of carbon dioxide. Spontaneous contractions of the myometrium were isometrically measured with a force-displacement transducer and recorded by a rectigram. 2-[4-[2-[[(1S, 2R)-2-Hydroxy-2-(4-hydroxyphenyl)-1-methylethyl]amino]ethyl]-phenoxy]acetic acid was cumulatively added to the Magnus bath every 5 minutes. The drug efficacy was evaluated by comparing the sum of uterine contractions during 5 minutes after the addition of the drug with that during 5 minutes before the addition of the drug which was expressed as 100%.
# [1] = Hygroscopicity (moisture absorption on standing under relative humidity); type: physicochemical
# Procedure: (§1) As examples of crystalline polymorphs other than the crystalline polymorph of the present invention, there are the crystalline polymorph (crystalline form γ) having strong diffraction peaks (diffraction angle: 2θ±0.1°) at 18.1, 19.7, 20.3, 21.2 and 22.4° and the crystalline polymorph (crystalline form […]) having strong diffraction peaks (diffraction angle: 2θ±0.1°) at 10.2, 13.2, 17.6, 19.8 and 20.6° in powder X-ray diffraction pattern. […] Thus, the crystalline polymorph of the present invention has an excellent low hygroscopicity and good storage. […] Thus, the crystalline polymorph of the present invention is favorable to oral administration and has a favorable efficiency in preparing liquid preparations such as injections.
# Solubility in water = type: physicochemical; settings: in water (37° C.)
# Procedure: as §1
# [2] = Drug absorption on oral administration; type: in vivo; settings: orally administered
# Procedure: as §1
smiles,measurement,setting,value
"C[C@H](NCCc1ccc(OCC(=O)O)cc1)[C@H](O)c1ccc(O)cc1 [2-[4-[2-[[(1S,2R)-2-hydroxy-2-(4-hydroxy-phenyl)-1-methylethyl]amino]ethyl]phenoxy]acetic acid]",EC50,β2-Adrenoceptor,31 nM
"C[C@H](NCCc1ccc(OCC(=O)O)cc1)[C@H](O)c1ccc(O)cc1 [crystalline form γ, 2-[4-[2-[[(1S,2R)-2-Hydroxy-2-(4-hydroxyphenyl)-1-methyl-ethyl]amino]ethyl]phenoxy]acetic Acid (Crystalline Form γ)]",moisture absorption (hygroscopicity),[1]; conditions not given,easily absorb moisture to convert into their hydrates
"C[C@H](NCCc1ccc(OCC(=O)O)cc1)[C@H](O)c1ccc(O)cc1 [crystalline form δ, 2-[4-[2-[[(1S,2R)-2-Hydroxy-2-(4-hydroxyphenyl)-1-methyl-ethyl]amino]ethyl]phenoxy]acetic Acid (Crystalline Form δ)]",solubility,Solubility in water,1800 µg/mL
"CC(NCCc1ccc(OCC(=O)O)cc1)C(O)c1ccc(O)cc1 [crystalline form α, 2-[4-[2-[[(1S,2R)-2-Hydroxy-2-(4-hydroxyphenyl)-1-methyl-ethyl]amino]ethyl]phenoxy]acetic Acid (Crystalline Form α)]",drug absorption,[2],excellent drug absorption
same,solubility,Solubility in water; read-out: solubility,2700 µg/mL
same,moisture absorption (hygroscopicity),[1]; allowed to stand for 10 days under relative humidities of 51-93%,does not absorb moisture
